Laboratory results as given in ChEMBL document CHEMBL4152254, “Pyridinyl- and pyridazinyl-3,6-diazabicyclo[3.1.1]heptane-anilines: Novel selective ligands with subnanomolar affinity for α4β2 nACh receptors” (Eur J Med Chem, 2018).
Active and inactive are the calls of the source. The rule behind the calls is not given here.

Key:
[1] = target: T1, Neuronal acetylcholine receptor; alpha4/beta2 (Homo sapiens, UniProt P17787+P43681); assay: Agonist activity at alpha4beta2 nAChR (unknown origin); format: protein-complex assay
T1 sequence (P17787 whole entry): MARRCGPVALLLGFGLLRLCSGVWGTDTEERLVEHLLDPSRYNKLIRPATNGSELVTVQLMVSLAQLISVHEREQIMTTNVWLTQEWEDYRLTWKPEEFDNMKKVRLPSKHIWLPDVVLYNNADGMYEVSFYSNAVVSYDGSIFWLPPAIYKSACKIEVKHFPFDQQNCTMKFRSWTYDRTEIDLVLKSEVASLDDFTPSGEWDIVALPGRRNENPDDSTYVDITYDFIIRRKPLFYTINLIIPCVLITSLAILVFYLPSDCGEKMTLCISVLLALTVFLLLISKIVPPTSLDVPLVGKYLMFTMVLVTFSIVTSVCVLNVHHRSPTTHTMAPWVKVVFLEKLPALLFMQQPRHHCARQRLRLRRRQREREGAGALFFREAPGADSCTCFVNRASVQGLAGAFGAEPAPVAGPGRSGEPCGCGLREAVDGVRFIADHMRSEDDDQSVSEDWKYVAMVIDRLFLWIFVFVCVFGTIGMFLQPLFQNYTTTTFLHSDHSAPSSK
T1 sequence (P43681 whole entry): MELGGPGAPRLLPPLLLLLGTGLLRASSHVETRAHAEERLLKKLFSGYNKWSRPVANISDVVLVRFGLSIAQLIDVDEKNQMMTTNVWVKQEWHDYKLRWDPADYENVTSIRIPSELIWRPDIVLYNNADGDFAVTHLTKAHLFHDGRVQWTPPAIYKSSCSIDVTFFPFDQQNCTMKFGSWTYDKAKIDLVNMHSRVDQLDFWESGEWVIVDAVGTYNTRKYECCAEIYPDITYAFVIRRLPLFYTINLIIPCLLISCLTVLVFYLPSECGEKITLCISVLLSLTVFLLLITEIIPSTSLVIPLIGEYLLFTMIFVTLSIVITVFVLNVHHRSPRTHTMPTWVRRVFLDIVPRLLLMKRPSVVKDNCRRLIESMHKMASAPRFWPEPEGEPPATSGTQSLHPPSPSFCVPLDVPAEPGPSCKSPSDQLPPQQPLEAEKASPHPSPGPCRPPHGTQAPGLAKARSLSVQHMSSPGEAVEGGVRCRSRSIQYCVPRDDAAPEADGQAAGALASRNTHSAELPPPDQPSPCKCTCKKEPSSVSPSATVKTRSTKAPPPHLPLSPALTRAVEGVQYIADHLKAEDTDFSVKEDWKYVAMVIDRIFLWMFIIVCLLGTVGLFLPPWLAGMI

[2] = target: Neuronal acetylcholine receptor subunit alpha-7 (Homo sapiens) (UniProt P36544); assay: Agonist activity at human alpha7 nAChR expressed in rat GH4C1 cells assessed as inward channel current amplitude at 100 uM at -70 mV holding potential by whole cell electrophysiology method; format: cell-based
Sequence of Neuronal acetylcholine receptor subunit alpha-7 (Homo sapiens) (P36544 whole entry): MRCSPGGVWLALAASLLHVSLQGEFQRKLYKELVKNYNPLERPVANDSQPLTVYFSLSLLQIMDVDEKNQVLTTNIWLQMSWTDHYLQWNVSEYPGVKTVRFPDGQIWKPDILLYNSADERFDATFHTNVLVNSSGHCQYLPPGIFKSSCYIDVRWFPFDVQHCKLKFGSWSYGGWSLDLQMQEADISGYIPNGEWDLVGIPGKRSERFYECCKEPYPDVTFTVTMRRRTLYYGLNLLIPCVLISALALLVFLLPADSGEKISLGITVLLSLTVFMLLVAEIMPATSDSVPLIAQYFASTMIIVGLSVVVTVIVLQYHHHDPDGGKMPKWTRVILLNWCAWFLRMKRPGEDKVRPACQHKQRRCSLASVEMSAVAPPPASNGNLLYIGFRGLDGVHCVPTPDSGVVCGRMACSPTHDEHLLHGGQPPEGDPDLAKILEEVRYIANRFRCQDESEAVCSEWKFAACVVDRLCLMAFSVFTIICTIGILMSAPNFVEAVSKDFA

Rattus norvegicus = species on record: Rattus norvegicus; assay: Selectivity ratio of Ki for alpha7 nAChR in rat hippocampal membranes to Ki for alpha4beta2 nAChR in rat cortex membranes; format: cell membranes
[3] = target: Neuronal acetylcholine receptor; alpha4/beta2 (Rattus norvegicus, UniProt P09483+P12390); assay: Displacement of [3H]epibatidine from alpha4beta2 nAChR in rat cortex membranes; format: cell membranes
Sequence of Neuronal acetylcholine receptor; alpha4/beta2 (Rattus norvegicus, UniProt P09483+P12390) (P09483 whole entry): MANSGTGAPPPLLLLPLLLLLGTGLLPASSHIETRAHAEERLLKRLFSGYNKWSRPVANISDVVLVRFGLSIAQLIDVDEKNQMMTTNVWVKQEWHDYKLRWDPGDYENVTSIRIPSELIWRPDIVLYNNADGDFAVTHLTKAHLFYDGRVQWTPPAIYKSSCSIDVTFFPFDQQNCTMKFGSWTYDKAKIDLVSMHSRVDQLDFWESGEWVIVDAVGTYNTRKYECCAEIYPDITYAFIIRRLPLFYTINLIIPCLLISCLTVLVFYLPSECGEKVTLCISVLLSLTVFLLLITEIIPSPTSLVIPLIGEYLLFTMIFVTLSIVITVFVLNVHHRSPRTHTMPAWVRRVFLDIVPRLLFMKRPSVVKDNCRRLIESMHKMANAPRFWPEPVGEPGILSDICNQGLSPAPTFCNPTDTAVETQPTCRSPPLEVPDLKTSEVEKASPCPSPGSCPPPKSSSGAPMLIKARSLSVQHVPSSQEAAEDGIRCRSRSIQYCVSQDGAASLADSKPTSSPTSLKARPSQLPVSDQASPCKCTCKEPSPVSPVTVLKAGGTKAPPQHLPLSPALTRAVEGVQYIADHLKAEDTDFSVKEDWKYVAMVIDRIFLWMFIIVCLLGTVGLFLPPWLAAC
Sequence of Neuronal acetylcholine receptor; alpha4/beta2 (Rattus norvegicus, UniProt P09483+P12390) (P12390 whole entry): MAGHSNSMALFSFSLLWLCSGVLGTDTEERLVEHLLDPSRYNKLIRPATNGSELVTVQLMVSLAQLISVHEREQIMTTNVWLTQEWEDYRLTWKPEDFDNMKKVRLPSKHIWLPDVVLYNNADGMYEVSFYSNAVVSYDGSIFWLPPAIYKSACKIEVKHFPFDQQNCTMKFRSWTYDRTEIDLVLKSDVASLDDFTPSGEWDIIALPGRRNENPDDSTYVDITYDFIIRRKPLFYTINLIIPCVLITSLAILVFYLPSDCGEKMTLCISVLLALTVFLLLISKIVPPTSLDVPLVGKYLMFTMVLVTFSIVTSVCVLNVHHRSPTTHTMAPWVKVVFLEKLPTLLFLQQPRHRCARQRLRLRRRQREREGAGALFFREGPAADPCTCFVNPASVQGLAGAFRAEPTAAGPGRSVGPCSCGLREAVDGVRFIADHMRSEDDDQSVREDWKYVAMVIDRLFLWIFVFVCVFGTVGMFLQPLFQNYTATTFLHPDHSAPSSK

[4] = Selectivity ratio of Ki for human alpha3beta4 nAChR expressed in HEK293 cell membranes to Ki for alpha4beta2 nAChR in rat cortex membranes; format: cell-based
[5] = target: T2, Neuronal acetylcholine receptor; alpha3/beta4 (Homo sapiens, UniProt P30926+P32297); assay: Displacement of [3H]epibatidine from human alpha3beta4 nAChR expressed in HEK293 cell membranes
T2 sequence (P30926 whole entry): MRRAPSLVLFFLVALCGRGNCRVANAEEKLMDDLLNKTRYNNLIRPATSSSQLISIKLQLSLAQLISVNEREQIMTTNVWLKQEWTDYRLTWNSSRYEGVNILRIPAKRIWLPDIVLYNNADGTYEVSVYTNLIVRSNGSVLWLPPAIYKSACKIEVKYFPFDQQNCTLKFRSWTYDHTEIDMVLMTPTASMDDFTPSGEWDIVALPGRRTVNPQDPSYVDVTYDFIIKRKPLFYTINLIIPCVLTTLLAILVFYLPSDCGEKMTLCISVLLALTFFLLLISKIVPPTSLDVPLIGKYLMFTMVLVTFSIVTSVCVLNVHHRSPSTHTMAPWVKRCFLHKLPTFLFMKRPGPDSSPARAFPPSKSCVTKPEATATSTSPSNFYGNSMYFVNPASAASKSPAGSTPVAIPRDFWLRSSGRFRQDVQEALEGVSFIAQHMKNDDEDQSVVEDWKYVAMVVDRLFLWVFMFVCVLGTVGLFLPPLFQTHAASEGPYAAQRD
T2 sequence (P32297 whole entry): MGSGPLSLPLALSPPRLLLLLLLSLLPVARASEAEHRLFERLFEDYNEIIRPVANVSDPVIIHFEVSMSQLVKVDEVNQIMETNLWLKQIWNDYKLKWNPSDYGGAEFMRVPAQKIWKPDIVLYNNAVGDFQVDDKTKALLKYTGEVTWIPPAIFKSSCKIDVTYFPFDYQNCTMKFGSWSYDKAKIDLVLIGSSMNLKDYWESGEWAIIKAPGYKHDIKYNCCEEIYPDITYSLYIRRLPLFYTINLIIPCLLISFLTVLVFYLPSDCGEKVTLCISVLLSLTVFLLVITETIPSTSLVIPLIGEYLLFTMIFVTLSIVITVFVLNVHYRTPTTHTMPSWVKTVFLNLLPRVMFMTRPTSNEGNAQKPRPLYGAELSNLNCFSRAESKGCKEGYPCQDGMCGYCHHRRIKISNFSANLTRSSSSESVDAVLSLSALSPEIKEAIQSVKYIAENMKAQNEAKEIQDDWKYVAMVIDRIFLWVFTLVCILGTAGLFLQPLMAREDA

[6] = target: Neuronal acetylcholine receptor subunit alpha-7 (Rattus norvegicus, UniProt Q05941); assay: Displacement of [125I]alpha-bungarotoxin from alpha7 nAChR in rat hippocampal membranes; format: cell membranes
Sequence of Neuronal acetylcholine receptor subunit alpha-7 (Q05941 whole entry): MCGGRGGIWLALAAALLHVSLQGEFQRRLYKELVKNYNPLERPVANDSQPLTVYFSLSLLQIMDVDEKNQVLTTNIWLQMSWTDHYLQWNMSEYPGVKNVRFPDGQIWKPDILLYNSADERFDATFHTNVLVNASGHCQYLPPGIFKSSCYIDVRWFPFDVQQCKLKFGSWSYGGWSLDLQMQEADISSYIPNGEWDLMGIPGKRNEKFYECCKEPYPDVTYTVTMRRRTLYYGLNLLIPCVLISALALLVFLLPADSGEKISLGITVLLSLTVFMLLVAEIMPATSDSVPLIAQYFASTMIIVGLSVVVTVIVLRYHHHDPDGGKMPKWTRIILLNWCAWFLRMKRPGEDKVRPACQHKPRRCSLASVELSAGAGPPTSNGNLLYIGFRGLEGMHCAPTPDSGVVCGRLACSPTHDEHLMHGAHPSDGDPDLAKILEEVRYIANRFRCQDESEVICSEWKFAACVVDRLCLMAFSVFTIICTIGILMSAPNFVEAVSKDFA

[7] = target: T2, Neuronal acetylcholine receptor; alpha3/beta4; assay: Agonist activity at human alpha3beta4 nAChR expressed in rat GH4C1 cells assessed as inward channel current amplitude at -70 mV holding potential by whole cell electrophysiology method; format: cell-based
[8] = target: T1, Neuronal acetylcholine receptor; alpha4/beta2; assay: Agonist activity at human alpha4beta2 nAChR expressed in rat GH4C1 cells assessed as inward channel current amplitude at -70 mV holding potential by whole cell electrophysiology method; format: cell-based
[9] = target: T2, Neuronal acetylcholine receptor; alpha3/beta4; assay: Agonist activity at human alpha3beta4 nAChR expressed in rat GH4C1 cells assessed as inward channel current amplitude at 100 uM at -70 mV holding potential by whole cell electrophysiology method relative to acetylcholine; format: cell-based
[10] = target: T1, Neuronal acetylcholine receptor; alpha4/beta2; assay: Agonist activity at human alpha4beta2 nAChR expressed in rat GH4C1 cells assessed as inward channel current amplitude at 100 uM at -70 mV holding potential by whole cell electrophysiology method relative to acetylcholine; format: cell-based

SMILES | Ratio Ki (Rattus norvegicus) | Ki [3] | Ratio Ki [4] | Ki [5] | Ki [6] | other results
Clc1ccc(N2CC3CC2CN3)cn1 (centres undefined) |  |  |  |  |  | Ki [1]: 0.018 nM
O=[N+]([O-])c1ccc(Nc2ccc(N3CC4CC(C3)N4)cn2)cc1 | 2330 | 1.76 nM | 14 | 25 nM | 4100 nM | Activity [2]: inactive; EC50 [7]: > 10000 nM; EC50 [8]: > 10000 nM
Cc1ccc(Nc2ccc(N3CC4CC(C3)N4)nn2)cc1 | 490 | 44.3 nM |  |  | 21700 nM | 
Clc1cccc(Nc2ccc(N3CC4CC(C3)N4)cn2)c1 | 1500 | 2.2 nM | 2 | 4.8 nM | 3300 nM | 
Clc1ccc(Nc2cncc(N3CC4CC(C3)N4)c2)cc1 | 983 | 0.118 nM | 10 | 1.2 nM | 116 nM | 
Clc1ccc(Nc2ccc(N3CC4CC(C3)N4)cn2)cc1 | 330 | 2.49 nM |  |  | 823 nM | 
c1cc2c(cc1Nc1ccc(N3CC4CC(C3)N4)cn1)OCO2 | 150 | 41 nM |  |  | 6150 nM | 
COc1ccc(Nc2ccc(N3CC4CC(C3)N4)nn2)cc1 | 87 | 578 nM |  |  | 50200 nM | 
Clc1cccc(Nc2cncc(N3CC4CC(C3)N4)c2)c1 | 9680 | 0.124 nM | 2360 | 293 nM | 1200 nM | 
Clc1ccc(Nc2cncc(N3CC4CC(C3)N4)c2)cc1Cl | 1520 | 1.25 nM |  |  | 1900 nM | 
CN(c1ccccc1)c1ccc(N2CC3CC(C2)N3)nn1 | 71 | 1430 nM |  |  | 101000 nM | 
FC(F)(F)c1ccc(Nc2ccc(N3CC4CC(C3)N4)cn2)cc1 | 413 | 0.569 nM | 1 | 0.818 nM | 235 nM | 
Fc1ccc(Nc2ccc(N3CC4CC(C3)N4)cn2)cc1 | 546 | 2.38 nM | 5 | 13 nM | 1300 nM | 
Oc1ccc(Nc2cncc(N3CC4CC(C3)N4)c2)cc1 | 6140 | 0.342 nM | 3 | 0.988 nM | 2100 nM | 
COc1ccc(Nc2ccc(N3CC4CC(C3)N4)cn2)cc1 | 412 | 7.3 nM | 1 | 9.03 nM | 3010 nM | 
Fc1ccc(Nc2ccc(N3CC4CC(C3)N4)nn2)cc1 | 128 | 868 nM |  |  | 111000 nM | 
COc1ccc(Nc2cncc(N3CC4CC(C3)N4)c2)cc1 | 14000 | 0.0598 nM | 37 | 2.2 nM | 837 nM | Activity [2]: inactive; Emax [9]: 42.3%; Emax [10]: 11%; EC50 [7]: 2900 nM; EC50 [8]: 1900 nM
Clc1ccc(Nc2ccc(N3CC4CC(C3)N4)cn2)cc1Cl | 887 | 2.3 nM | 18 | 40.9 nM | 2040 nM | 
CN(c1ccccc1)c1cncc(N2CC3CC(C2)N3)c1 | 154 | 2.06 nM |  |  | 317 nM | 

SMILES | Ratio Ki (Rattus norvegicus) | Ki [3] | Ratio Ki [4] | Ki [5] | Ki [6] | other results
c1ccc(Nc2ccc(N3CC4CC(C3)N4)nn2)cc1 | 24 | 441 nM |  |  | 10400 nM | 
c1cncc(N2CC3CCC(C2)N3)c1 |  |  |  |  |  | Ki [1]: 0.4 nM
Clc1ccc(N2CC3CCC(C2)N3)cn1 |  |  |  |  |  | Ki [1]: 0.95 nM
FC(F)(F)c1ccc(Nc2cncc(N3CC4CC(C3)N4)c2)cc1 | 499 | 0.373 nM | 3 | 1.02 nM | 186 nM | 
O=[N+]([O-])c1ccc(Nc2cncc(N3CC4CC(C3)N4)c2)cc1 | 10700 | 0.0225 nM | 30 | 0.684 nM | 241 nM | 
Clc1ccc(Nc2ccc(N3CC4CC(C3)N4)nn2)cc1Cl | 10 | 516 nM |  |  | 5100 nM | 
O=[N+]([O-])c1ccc(Nc2ccc(N3CC4CC(C3)N4)nn2)cc1 | 80 | 86.2 nM |  |  | 6900 nM | 
Clc1cccc(Nc2ccc(N3CC4CC(C3)N4)nn2)c1 | 27 | 1540 nM |  |  | 41800 nM | 
Cc1ccc(Nc2ccc(N3CC4CC(C3)N4)cn2)cc1 | 1700 | 52.1 nM |  |  | 88800 nM | 
Oc1ccc(Nc2ccc(N3CC4CC(C3)N4)cn2)cc1 | 310 | 7.1 nM | 23 | 165 nM | 2200 nM | 
c1cncc(N2C[C@H]3C[C@@H]2CN3)c1 |  |  |  |  |  | Ki [1]: 0.02 nM
c1ccc(Nc2cncc(N3CC4CC(C3)N4)c2)cc1 | 333 | 0.0807 nM | 10 | 0.799 nM | 26.9 nM | 
Clc1ccc(Nc2ccc(N3CC4CC(C3)N4)nn2)cc1 | 191 | 90.4 nM |  |  | 17300 nM | 
c1cncc(N2C[C@@H]3C[C@H]2CN3)c1 |  |  |  |  |  | Ki [1]: 0.15 nM
Clc1ccc(N2CC3CCC(C2)N3)nn1 |  |  |  |  |  | Ki [1]: 4.1 nM
c1ccc(Nc2ccc(N3CC4CC(C3)N4)cn2)cc1 | 179 | 2.66 nM |  |  | 475 nM | 
Fc1ccc(Nc2cncc(N3CC4CC(C3)N4)c2)cc1 | 4850 | 0.091 nM | 14 | 1.25 nM | 441 nM | 
Cc1ccc(Nc2cncc(N3CC4CC(C3)N4)c2)cc1 | 2030 | 0.148 nM | 9 | 1.4 nM | 300 nM | 
FC(F)(F)c1ccc(Nc2ccc(N3CC4CC(C3)N4)nn2)cc1 | 294 | 6.9 nM | 17 | 115 nM | 2030 nM | 
